Measured values as given in patent EP3508492A1, “TIACUMICIN DERIVATIVES AND THEIR USE AS ANTIBIOTICS” (priority 2018, dated 2019).
Values after ≈ are worked out from the molar mass of the structure shown. Values joined by “and” are separate entries in the source; they are usually repeats but may differ in a detail not shown here. Identical values can stand only once. Like-named read-outs stand apart in the source and are kept apart here.

How the values were obtained:
[1] = test system: Mycobacterium tuberculosis H37Ra; experiment: MIC determination from adjusted liquid culture, serial dilution; type: cell-based; conditions: ATCC 25177 / H37Ra, strain ATCC25177, Middlebrook 7H9 + 10 % ADC, read after 3-14 days
Procedure: An M. tuberculosis H37Ra (ATCC25177) liquid culture (5 mL, Middlebrook 7H9 broth base + 10 % ADC supplement) was inoculated from original stock (-80°C). After two to five days of shaking at 37°C, an OD600 (optical density at λ = 600 nm) of approximately 1 was observed. […] Plates were covered with plastic foil and a lid. MIC values were determined by visual inspection or by plate reader at 600 nm after 3-14 days (pre-tempered at 37°C with plastic foil, lid removed). Table 1: The MIC values in Table 1 are given in µg/mL and in nmol/mL.

Staphylococcus aureus = experiment: MIC determination by broth dilution (CLSI); conditions: ATCC29213
Procedure: (§1) The strains of Bacillus subtilis and Staphylococcus aureus were grown overnight at 37 °C on MH II agar plates. (BD™ BBL™ Mueller Hinton II Agar, BD Diagnostics). MIC values were determined by broth dilution method according to the recommendations of the Clinical and Laboratory Standards Institute (CLSI; U.S.A.). The inoculum size was about 7.5 x 10^5 colony forming units/well. The compounds were diluted in H2O from 1.0 mg/mL stock solutions in methanol/H2O 1/1 in a 2-fold dilution series. The microtiter plates were incubated at 37 °C overnight.

Bacillus subtilis = experiment: MIC determination by broth dilution (CLSI); conditions: DSM3256
Procedure: as §1

[2] = Determination of aqueous solubility (UHPLC, caffeine internal standard); type: physicochemical; conditions: for weight-% of isomer (transacylated regioisomer): five hours at room temperature, equal absorption of both regioisomers assumed; for solubility at 5 h: thermodynamic from solid
Procedure: A standard stock solution of each analyte in MeOH at a concentration of 1.0 mg/mL was prepared. All analytes were completely soluble in MeOH. A standard stock solution of caffeine for use as internal standard (IS) in MeOH was prepared at a concentration of 1 mg/mL. These stock solutions were further diluted with MeOH to calibration standard samples at concentrations of 50, 100, 200, 300, 400, 500 µg/mL of analyte with each sample containing 50 µg/mL of caffeine as IS. These samples were analyzed by UHPLC [Kinetex® EVO C18; 1.7 µm; 100 Å, 50 mm x 2.1 mm; Phenomenex; solvent A: H2O + 0.1 % HCOOH, solvent B: MeCN + 0.1 % HCOOH; 0.4 mL/min; 1.0 µL injection volume, LC time program (min - % B): 0.50 min - 5 %, 3.50 min - 95 %, 3.55 min - 100 %; UV detection at λ = 270 nm]. The peak area of the analyte signal was divided by the peak area of the IS. This peak ratio was plotted against the analyte's concentration to obtain a linear equation.
For reproducibility reasons, water solubility of the fidaxomicin derivatives was quantified in a pH = 7 phosphate buffered aqueous solution (Acros, CAS 7558-79-4). A stock solution of caffeine in phosphate buffer at a concentration of 1.0 mg/mL was prepared and diluted to a concentration of 50 µg/mL. To 1.0 mL of this caffeine solution, the analyte was added as a solid until a saturated solution was obtained. This solution was stirred for five hours at room temperature. The mixture was filtered over a 0.22 µm syringe filter and the obtained solution was analyzed by UHPLC. The concentration was then calculated from the linear equation obtained from the calibration.
With most samples of fidaxomicin derivatives, two peaks for the analyte were detected, viz. one for the original substance and one for its regioisomer formed by transacylation of the isobutyric acid ester. In the following table, the total solubility of each analyte is given with the percentage of isomerization added in parentheses (weight-% of transacylated isomer), assuming that both regioisomers feature approximately the same absorption characteristics. Table 2: Aqueous solubility of fidaxomicin derivatives

[3] = pH = 7 phosphate buffered aqueous solution

In the case of CCOC(=O)COc1c(Cl)c(O)c(C(=O)O[C@H]2[C@H](O)[C@H](OC)[C@H](OC/C3=C\C=C\C[C@H](O)/C(C)=C/[C@H](CC)[C@@H](O[C@@H]4OC(C)(C)[C@@H](OC(=O)C(C)C)[C@H](O)[C@@H]4O)/C(C)=C/C(C)=C/C[C@@H]([C@@H](C)O)OC3=O)O[C@@H]2C)c(CC)c1Cl [Compound 5a, Fidaxomicin Ethylacetate], the MIC [1] is reported as 2 µg/mL to 8 µg/mL and 1.8 µM to 7 µM, the MIC (Staphylococcus aureus) is reported as 16 µg/mL and 14 µM and the MIC (Bacillus subtilis) is reported as 32 µg/mL and 28 µM.
For CCc1c(Cl)c(OCC(=O)N2CCN(c3cc4c(cc3F)c(=O)c(C(=O)O)cn4C3CC3)CC2)c(Cl)c(O)c1C(=O)O[C@H]1[C@H](O)[C@H](OC)[C@H](OC/C2=C\C=C\C[C@H](O)/C(C)=C/[C@H](CC)[C@@H](O[C@@H]3OC(C)(C)[C@@H](OC(=O)C(C)C)[C@H](O)[C@@H]3O)/C(C)=C/C(C)=C/C[C@@H]([C@@H](C)O)OC2=O)O[C@@H]1C [Compound 11a, Fidaxomicin-Ciprofloxacin Hybrid], the MIC [1] was 16 µg/mL to 64 µg/mL and 11.2 µM to 44.8 µM and the MIC (Staphylococcus aureus) was > 64 µg/mL and > 44.8 µM.
In the case of CCOC(=O)COc1c(Cl)c(CC)c(C(=O)O[C@H]2[C@H](O)[C@H](OC)[C@H](OC/C3=C\C=C\C[C@H](O)/C(C)=C/[C@H](CC)[C@@H](O[C@@H]4OC(C)(C)[C@@H](OC(=O)C(C)C)[C@H](O)[C@@H]4O)/C(C)=C/C(C)=C/C[C@@H]([C@@H](C)O)OC3=O)O[C@@H]2C)c(OCC(=O)OCC)c1Cl [Compound 5b, Fidaxomicin Bis(ethylacetate)], the MIC [1] is reported as 1 µg/mL to 4 µg/mL and 0.8 µM to 3.3 µM, the MIC (Staphylococcus aureus) is reported as 32 µg/mL to 64 µg/mL and 26 µM to 52 µM and the MIC (Bacillus subtilis) is reported as 8 µg/mL to 16 µg/mL and 6.5 µM to 13 µM.
With CCc1c(Cl)c(OCC(=O)N2CCC(O)CC2)c(Cl)c(O)c1C(=O)O[C@H]1[C@H](O)[C@H](OC)[C@H](OC/C2=C\C=C\C[C@H](O)/C(C)=C/[C@H](CC)[C@@H](O[C@@H]3OC(C)(C)[C@@H](OC(=O)C(C)C)[C@H](O)[C@@H]3O)/C(C)=C/C(C)=C/C[C@@H]([C@@H](C)O)OC2=O)O[C@@H]1C [Compound 10a] the “weight-% of isomer (transacylated regioisomer)” value [2, 3] was 7 weight-% and the solubility at 5 h ([2]; phosphate buffer, aqueous buffer, pH = 7 phosphate buffered aqueous solution, stirred five hours at room temperature, 0.22 µm filter, read-out: Conc. (aqueous solubility, total of both regioisomers)) was 180 µg/mL (≈ 150 µM).
In the case of C=CCOC(=O)N1CCN(C(=O)COc2c(Cl)c(O)c(C(=O)O[C@H]3[C@H](O)[C@H](OC)[C@H](OC/C4=C\C=C\C[C@H](O)/C(C)=C/[C@H](CC)[C@@H](O[C@@H]5OC(C)(C)[C@@H](OC(=O)C(C)C)[C@H](O)[C@@H]5O)/C(C)=C/C(C)=C/C[C@@H]([C@@H](C)O)OC4=O)O[C@@H]3C)c(CC)c2Cl)CC1 [Compound 7a, Fidaxomicin Piperazine with alloc Protecting Group], the MIC (Staphylococcus aureus) is reported as 16 µg/mL to 32 µg/mL and 12.6 µM to 25.2 µM and the MIC (Bacillus subtilis) is reported as > 64 µg/mL and > 50.5 µM.
In the case of CCc1c(Cl)c(O)c(Cl)c(O)c1C(=O)O[C@H]1[C@H](O)[C@H](OC)[C@H](OCC2=CC=CC[C@H](O)C(C)=C[C@H](CC)[C@@H](O[C@@H]3OC(C)(C)[C@@H](OC(=O)C(C)C)[C@H](O)[C@@H]3O)C(C)=CC(C)=CC[C@@H]([C@@H](C)O)OC2=O)O[C@@H]1C [Fidaxomicin, 3-(((6-Deoxy-4-O-(3,5-dichloro-2-ethyl-4,6-dihydroxybenzoyl)-2-O-methyl-β-D-mannopyranosyl)oxy)-methyl)-12(R)-[(6-deoxy-5-C-methyl-4-O-(2-methyl-1-oxopropyl)-β-D-lyxo-hexopyranosyl)oxy]-11(S)-ethyl-8(S)-hydroxy-18(S)-(1(R)-hydroxyethyl)-9,13,15-trimethyloxacyclooctadeca-3,5,9,13,15-pentaene-2-one, reference compound], the MIC [1] is reported as 4 µg/mL and 3.8 µM, the solubility at 5 h ([2]; pH 7, aqueous buffer) is reported as 84 µg/mL (≈ 79.4 µM) and the “weight-% of isomer (transacylated regioisomer)” value [2, 3] is reported as 9 weight-%. The MIC (Staphylococcus aureus) was 8 µg/mL to 16 µg/mL and 7.6 µM to 15.1 µM and the MIC (Bacillus subtilis) was 8 µg/mL to 16 µg/mL and 7.6 µM to 15.1 µM.
